Laboratory results as given in patent US7662851B2, “Use of specific cyklolignans” (Axelar AB, priority 2001, dated 2010).
pEC50, pIC50: −log10 of the molar value. In brackets after ≈: the same amount, converted by molar mass.

Tests used:
[1] = nude, mouse, in vivo, ip, 28 mg/kg
[2] = system: K562/Vcr30 chronic myeloid leukemia cells; assay: Leukemia cell viability, K562/Vcr30; type: cell-based, human; conditions: Homo sapiens; K562/Vcr30, 72 h; read-out: IC50 for cell viability
Procedure: (§1) The human chronic myeloid leukemia K562/S and K562/Vcr30 lines and the acute myeloid leukemia cell lines HL60/0 and HL60/Nov were obtained from ATCC. The K562/S and […] are wild type (non-resistant) cells, whereas K562/Vcr30 and HL60/Nov are cytostatic-resistant sublines. All leukemia cell lines were cultured in RPMI 1640 medium supplemented with 10% fetal bovine serum and with 2 mM L-glutamine, benzylpenicillin (100 U/ml) and streptomycin (100 μg/ml). The cells were grown in tissue culture flasks maintained at 95% air/5% CO2 atmosphere at 37° C. in a humidified incubator. For the experiments cells were cultured in 60-mm plastic dishes or 96-well plastic plates.
(§2) Cell proliferation kit II (Roche Inc.) is based on colorimetric change of the yellow tetrazolium salt XTT in orange formazan dye by the respiratory chain of viable cells (Roehm, N W, et al., J Immunol Methods 142:257-265, 1991). Cells seeded at a concentration of 5000/well in 100 μl medium in a 96-well plate were treated with different drugs in the given concentration. After 24 or 48 h the cells were incubated, according to the manufacturer's protocol, with XTT labelling mixture. After 4 h the formazan dye is quantified using a scanning multiwell spectrophotometer with a 495-nm filter. The absorbance is directly correlated with the number of viable cells. The standard absorbance curve was drawn by means of untreated cells seeded at a concentration of from 1000 to 10 000 cells/well with an increasing rate of 1000 cells/well. All standards and experiments were performed in triplicates.
(§3) Cells of said cell lines were seeded in 96-well plates (25 000 cells/well, medium volume per well was 100 μl), in […] medium supplemented with fetal calf serum. After 24 h picropodophyllin and the derivatives alpha-apopicropodophyllin and beta-apopicropodo-phyllin were added at different concentrations and the cells were incubated for 72 h. Cell viability was then assayed (see above). […] The results are based on 3 different experiments.
(§4) The leukemia cell lines K562/S, […], HL60/0 and HL60/Nov were cultured in 96-well plates as described in Experiment 7. After 24 h, the cells were treated for 72 h with different concentrations of the anti-cancer agent vincristine, with and without co-incubation with 0.05 μM picropodophyllin. […] Cell viability was then assayed. IC50 values for each inhibitor and cell line are shown below (Table 8). The results are based on 3 different experiments.

[3] = system: K562/S chronic myeloid leukemia cells; assay: Leukemia cell viability, K562/S; type: cell-based, human; conditions: Homo sapiens, 72 h, read-out: IC50 for cell viability
Procedure: as §1, §2, §3, §4

[4] = system: HL60/Nov acute myeloid leukemia cells; assay: Leukemia cell viability, HL60/Nov; type: cell-based, human; conditions: Homo sapiens, HL-60, 72 h, read-out: IC50 for cell viability
Procedure: as §1, §2, §3, §4

[5] = system: microtubule polymerisation; conditions: cited from earlier work
[6] = system: ES-1 (Ewing's sarcoma cells) xenografts; assay: Tumor growth of ES-1 xenografts in nude mice; type: in vivo; conditions: 28 mg/kg i.p. daily 4-6 days, then 4-6 days without treatment, FIG. 6
Procedure: Control mice were treated with the solvent. 3-6 animals were treated in each group.
Because of the toxicity of podophyllotoxin and deoxypodophyllotoxin, we only used picropodophyllin to analyze effects on tumor xenografts. For this purpose ES-1 (Ewing's sarcoma cells) and BE (melanoma cells) xenografts were established in nude mice. When the ES-1 and BE tumors started growing subcutaneously and were measurable, mice were treated daily with intraperitoneal injections of picropodophyllin (28 mg/kg, which was required for giving an average concentration above 0.05 μM of picropodophyllin in the blood plasma) or 80% DMSO in saline as a carrier for 4-6 days, followed by 4-6 days without treatment. The mice were then killed and the tumors analyzed by an experienced pathologist.

[7] = system: non-IGF-1R kinases; assay: In vitro tyrosine kinase assay: non-IGF-1R kinases (IGF-1R-immunodepleted supernatant); type: biochemical; conditions: cell-free, FIG. 3
Procedure: IGF-1R-catalyzed substrate phosphorylation of polyTyrGlu (pTG) was performed essentially as previously described [Parrizas M., et al., ibid., and Blum G., et al., ibid.]. Immunoprecipitated IR from HepG2, IGF-1R from P6 cell extract and immunodepleted supernatant to assay non-IGF-1R tyrosine kinases. The phosphorylated polymer substrate was probed with a purified phosphotyrosine specific monoclonal antibody conjugated to horseradish peroxidase (HARP). Color was developed with HRP chromogenic substrate o-phenylene-diamine dihydrochloride (OPD). The color was quantitated by spectrophotometry (ELISA reader) and reflects the relative amount of tyrosine kinase. The precipitate was immunoblotted with anti-bodies to IGF-1R and IR to verify the presence of the receptor. Serial dilutions were used to assay the optimal conditions with respect to the amount of IGF-1R and IR. The signal was linear for 30 minutes and was a function of IGF-1R concentration up to 75 ng/well. […] After spectrophotometry the IC50 values of inhibitors were determined using the Regression function of Statistica program.
Therefore we isolated the receptor and determined the effects of picropodophyllin on IGF-1R catalyzed substrate tyrosine phosphorylation and IGF-1R autophosphorylation in-vitro.

[8] = rats; cited from earlier work
[9] = system: BE malignant melanoma cell line; assay: Cell viability (XTT), BE; type: cell-based; conditions: 48 h
Procedure: as §2
12 different types of cell lines were seeded in 96-well plates (medium volume in a well was 100 μl), at a concentration of 10,000 cells/cm^2 in Minimal Essential Medium supplemented with fetal calf serum. When the cells had reached a concentration of 65,000 cells/cm^2, they were treated with different doses of podophyllotoxin and picropodophyllin for 48 h. Cell viability was then assayed (see above). […]

[10] = Water solubility; type: physicochemical

| SMILES | Average concentration in the blood plasma [1] | pIC50 [2] | pIC50 [3] | pIC50 [4] | Fold lower inhibitory effect on microtubule polymerisation than podophyllotoxin [5] [fold] | Effect on tumor growth [6] | Interference with substrate phosphorylation of other non-IGF-1R kinases [7] | Fold higher LD50 than podophyllotoxin [8] | pEC50 [9] | solubility [10] [µM] |
| --- | --- | --- | --- | --- | --- | --- | --- | --- | --- | --- |
| COc1cc([C@@H]2c3cc4c(cc3[C@H](O)[C@H]3COC(=O)[C@@H]23)OCO4)cc(OC)c1OC [Picropodophyllin, picropodophyllin] | above 0.05 μM | < 6.30 | 6.49 | 6.96 | 50 | significantly inhibited growth | failed to interfere | more than 35 fold |  |  |
| COc1cc([C@@H]2c3cc4c(cc3[C@H](O)[C@H]3COC(=O)[C@H]23)OCO4)cc(OC)c1OC [Podophyllotoxin, podophyllotoxin] |  |  |  |  |  |  |  |  | 7.30 | 100 to 200 (≈ 41.4 to 82.9 µg/mL) |
